Patent US8202899B2, “Pyrazole urea derivatives used as kinase inhibitors” (Array BioPharma Inc., priority 2007, dated 2012)
Converted amounts (≈) assume the structure as drawn. Where two headings read alike, the source gives them in different places.

Tests used:
[1] = molecular target: activated p38α enzyme (Homo sapiens, UniProt Q16539); test: p38 Biochemical Assay
Experimental: p38 activity was assayed at room temperature in a 100 μL reaction containing 5 nM activated p38α enzyme and 1 μM ATF-2 (Activating Transcription Factor 2 fusion protein) as the substrate in […] HEPES (pH 7.4), 100 μM Vanadate, 1 mM :DTT, 10 mM MgCl2 and 10 μM [γ-^33P]-ATP (˜0.1 μCi P^33/reaction). The reaction was terminated after 30-40 minutes by adding 25% TCA, allowed to stand for 5 minutes, and then transferred directly to a GF-B membrane filter plate. The filter was washed twice for 30 seconds with 0.5% phosphoric acid using a Tomtec Mach III Automated Harvestor. After washing, the vacuum was continued for 30 seconds to dry the filter. Approximately 30 μL of scintillant was added per well to the filter plate and then read in a Liquid Scintillation Counter (Packard TopCount HTS).

[2] = tested on: TNF-α production in whole blood treated with LPS; test: Human Whole Blood TNF-α Assay; type: cell-based; details: inhibition of LPS-induced TNF-α production, ELISA, read-out: apparent IC50
Experimental: In a functional cell assay, the compound of Examples 1 and 2 were tested for their ability to inhibit TNF-α production in whole blood treated with bacterial lipopolysaccharide (LPS) to induce cytokine production (as detected by ELISA).
Compound test solutions were made by making 3.33 fold serial dilutions in DMSO, which dilutions were then diluted to 5× stocks by diluting with MEM, 2% heat inactivated fetal bovine serum (“MS”), 20 mM HEPES, 2 mM L-glutamine, and 1% penicillin/streptomycin
Whole blood was collected from human volunteers using sodium heparin Vacutainer™ tubes and processed within two hours of collection. Blood was diluted 3-fold with Whole Blood (WB) medium (RPMI 1640, 2% heat inactivated fetal bovine serum, 20 mM HEPES, 2 mM L-glutamine, and 1% penicillin/streptomycin). 100 μL of diluted blood was added to each well of a 96-well cell culture plate, followed by 30 μL of a compound test solution.
After a one-hour incubation at 37° C./5% CO2, 20 μL of 7.5 ng/mL lipopolysaccharide (E. coli K-235, Sigma L2018) was added to each well. The cells were incubated again at 37° C./5% CO2 for 16-20 hours. […]
Briefly, test compound supernatants were added to wells of a 96-well plate that were coated with antibody to human TNF-α (R&D Systems, MAB210) and incubated at room temperature for at least one hour. […] The absorbance at 405 nm was then read.

[3] = Solubility Assay (modified shake flask method); type: physicochemical
Experimental: The solubility of each of the compounds of Examples 1 and 2 were tested at pHs 1.2, 6.5 and 7.4 using a modified shake flask method. The compounds were received as 1.6 mg/mL stock solutions in DMSO. Aqueous unknowns were prepared at final concentrations of 16 μg/mL and 32 μg/mL, with each aqueous unknown containing 1% or 2% DMSO, respectively. The aqueous samples were quantitated against organic standards prepared in MeOH (with 1% DMSO in the high standard (16 μg/mL). UV 220 nm and UV 254 nm area were used for quantitation.

Sequence of activated p38α enzyme (Q16539 whole entry, the tested form may be a part): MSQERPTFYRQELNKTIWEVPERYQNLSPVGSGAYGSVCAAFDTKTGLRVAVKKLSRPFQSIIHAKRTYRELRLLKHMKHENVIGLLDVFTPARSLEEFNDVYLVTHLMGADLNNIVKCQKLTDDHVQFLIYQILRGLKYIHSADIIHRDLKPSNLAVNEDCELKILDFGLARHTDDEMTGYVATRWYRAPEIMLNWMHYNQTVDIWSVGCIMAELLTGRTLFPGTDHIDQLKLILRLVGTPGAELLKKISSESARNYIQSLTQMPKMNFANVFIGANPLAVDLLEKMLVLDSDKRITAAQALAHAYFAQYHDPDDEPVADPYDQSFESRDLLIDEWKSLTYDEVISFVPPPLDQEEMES

| SMILES | p38 inhibition potency compared to the compound of Example 138 of WO 2004/078116 [1] | IC50 [2] | solubility ([3]; aqueous solution (pH 7.4), aqueous buffer, pH 7.4, starting conc. 1000 μg/mL, read-out: Solubility pH 7.4) | solubility ([3]; aqueous sample containing 1% DMSO, aqueous buffer, kinetic from dmso stock, pH 6.5, starting conc. 16 μg/mL (with 1% DMSO), read-out: Solubility pH 6.5) | solubility ([3]; aqueous sample containing 1% DMSO, aqueous buffer, kinetic from dmso stock, pH 7.4, starting conc. 16 μg/mL (with 1% DMSO), read-out: Solubility pH 7.4) | solubility ([3]; aqueous sample containing 1% DMSO, simulated gastric fluid, kinetic from dmso stock, pH 1.2, starting conc. 16 μg/mL (with 1% DMSO), read-out: Solubility pH 1.2) | solubility ([3]; aqueous sample containing 2% DMSO, aqueous buffer, kinetic from dmso stock, pH 6.5, starting conc. 32 μg/mL (with 2% DMSO), read-out: Solubility pH 6.5) | solubility ([3]; aqueous sample containing 2% DMSO, aqueous buffer, kinetic from dmso stock, pH 7.4, starting conc. 32 μg/mL (with 2% DMSO), read-out: Solubility pH 7.4) | solubility ([3]; aqueous sample containing 2% DMSO, simulated gastric fluid, kinetic from dmso stock, pH 1.2, starting conc. 32 μg/mL (with 2% DMSO), read-out: Solubility pH 1.2) | aqueous solubility compared to the compound of Example 138 of WO 2004/078116 ([3]; at pH 6.5 and 7.4) |
| --- | --- | --- | --- | --- | --- | --- | --- | --- | --- | --- |
| CC(C)(C)c1cc(NC(=O)NCc2cc(F)ccc2Oc2ccc3c(cnn3CCO)c2)n(-c2ccc(CO)cc2)n1 [Example 2, 1-(3-tert-butyl-1-(4-(hydroxymethyl)phenyl)-1H-pyrazol-5-yl)-3-(5-fluoro-2-(1-(2-hydroxymethyl)-1H-indazol-5-yloxy)benzyl)urea] | significantly more potent inhibitor of p38 | 1.9 nM |  |  |  |  |  |  |  |  |
| Cn1nc(C(C)(C)C)cc1NC(=O)NCc1cc(F)ccc1Oc1ccc2c(cnn2CC(C)(C)O)c1 [Example 138, reference compound] |  |  | 0.045 µg/mL (≈ 0.0885 µM) |  |  |  |  |  |  |  |
| Cc1ccc(-n2nc(C(C)(C)CO)cc2NC(=O)NCc2cc(F)ccc2Oc2ccc3c(cnn3CCO)c2)cc1 [Example 1] |  | 447 nM |  | 0.75 µg/mL (≈ 1.31 µM) | 0.7 µg/mL (≈ 1.22 µM) | 7.9 µg/mL (≈ 13.8 µM) | 1.8 µg/mL (≈ 3.14 µM) | 1.7 µg/mL (≈ 2.97 µM) | 18.8 µg/mL (≈ 32.8 µM) | improved aqueous solubility |
